Test results from patent US12661353B2, “SPT5 inhibitors and uses thereof” (Yeda Research and Development Co. Ltd., priority 2020, dated 2026).

Tests used:
mutant (Q111) Htt = experiment: Htt mRNA levels in Q111 striatal cells, qPCR; type: cell-based, mouse; details: Q111 striatal cells, 48 hours; note: key: + represent a statistically significant effect
Method: (§1) Cell culture—HEK293T, HeLa, MCF7, Jurkat and mouse embryonic fibroblasts (MEFs) cells were grown and maintained in Dulbecco's modified Eagle's medium supplemented with 10% fetal calf serum (Gibco) and 1% penicillin-streptomycin. To avoid NF-κB activity, HeLa cells were kept from reaching confluence and re-plated no more than 10 times following initial thawing. To induce NF-κB activity, cells were treated with […] recombinant human TNF-α (Peprotech) for the indicated times. STHdh Q111 and STHdh Q7 striatal cell lines (Coriell Institute for Medical Research) were grown in Dulbecco's modified Eagle's medium supplemented with 10% fetal calf serum (Gibco), 1% penicillin-streptomycin and 0.4 mg/ml G418 at 33° C. The cells were re-plated no more than 5-6 times, as recommended.
Huntington's disease (HD) is an inherited genetic disorder caused by expansion trinucleotide CAG repeats (36 and higher) encoding glutamine (Q) in the huntingtin (Htt) gene. Expression of the mutant gene in neurons of the striatum and the frontal cortex leads to degeneration of neuronal cells that control body movements, emotions and intellect. […] To examine the potential effect of SPIs in this context, striatal cell lines established from wild type (Q7) or from mutant (Q111) Htt knock-in mice were used. In these cell lines the coding region of the first exon of the mouse Htt gene was replaced with the same region of human wild type (Q7) or mutant (Q111) Htt, as schematically shown in FIG. 6A. The two cell lines were treated for 48 hours with the identified SPIs and following the levels of Htt mRNA were determined.
The compounds were tested as described in Example 4 hereinabove. In brief, Q111 (or Q7, where indicated) expressing Striatal cells were treated with the tested compound at the indicated concentrations for 48 hours. Then, RNA was extracted and levels of Htt mRNA were determined by qRT-PCR and normalized to β-actin. The data was analysed using GraphPad Prism software.

[1] = target: T1, Rpb1 CC domain (His-Rpb1) (Homo sapiens, UniProt P24928); experiment: Binding assay by intrinsic fluorescence of purified His-Rpb1; details: read-out: IC50, decrease of intrinsic fluorescence of Rpb1 (Pol II)
T1 construct: His tag; made in house; host or cells: E. coli; purified on nickel agarose beads
T1 sequence (P24928 8-370): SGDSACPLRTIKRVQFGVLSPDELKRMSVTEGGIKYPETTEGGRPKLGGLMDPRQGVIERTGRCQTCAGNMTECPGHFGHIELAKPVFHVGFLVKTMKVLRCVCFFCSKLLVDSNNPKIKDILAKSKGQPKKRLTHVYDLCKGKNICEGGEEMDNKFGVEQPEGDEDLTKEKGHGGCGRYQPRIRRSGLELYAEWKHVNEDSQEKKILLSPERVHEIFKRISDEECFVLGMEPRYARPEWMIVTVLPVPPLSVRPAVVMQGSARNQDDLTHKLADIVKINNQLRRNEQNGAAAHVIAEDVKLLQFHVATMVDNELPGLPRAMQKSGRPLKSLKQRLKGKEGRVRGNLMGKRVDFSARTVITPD
Method: (§2) Binding assay—In order to measure binding of the indicated compound to Spt5 and/or Pol II; Spt5-Spt4 or Rpb1 fused to a histidine (His) tag were expressed in E. coli (SEQ ID Nos: 2-3, 5-6 and 81) and purified on nickel agarose beads as described in Ashkenazi et al. 2016. The proteins were incubated for 10 minutes with increasing concentrations of the indicated compound in a black 384 wells microplate in a total volume of 20 μl. Binding was assessed by measuring the changes in the intrinsic fluorescence (280 nm) using Cytation™ 5 (BioTek).
(§3) Two identified compounds, SPI-21 and SPI-18, were further validated for their direct interaction with either Spt5 or Rpb1 CC domain. […] Using the purified proteins, fluorescence intensity measurements were performed in the presence of increasing concentrations of SPI-21 or SPI-18. This method analyzes binding by monitoring the changes in the intrinsic fluorescence of the proteins as a consequence of conformational changes. […]
(§4) Direct interaction with either the Spt5 or the Rpb1 CC domain of SPI-21 and SPI-18 was further validated. […] Using the purified proteins, fluorescence intensity measurements were performed in the presence of increasing concentrations of SPI-21 and SPI-18. This method analyzes binding by monitoring the changes in the intrinsic fluorescence of the proteins as a consequence of conformational changes. […]

His-Spt5 (fused to Spt4) = target: T2, His-Spt5 (fused to Spt4) (Homo sapiens, UniProt O00267); experiment: Binding assay by intrinsic fluorescence of purified His-Spt5 (fused to Spt4)
T2 construct: His-Rpb1 and His-Spt5 (fused to Spt4 to increase its stability) were each expressed in E. coli; Spt4 (fusion partner); His tag (N); made in house; host or cells: E. coli; purified on nickel agarose beads
Method: as §2, §3, §4

[2] = test system: pro-inflammatory genes A20, CCL20, IL6, IL8, CXCL2, JUNB and IEX1; experiment: mRNA levels of pro-inflammatory genes under TNFα-induced conditions, HeLa, RT-qPCR; type: cell-based, human; details: HeLa cells, SPI 1 hour then TNFα 1 hour
Method: as §1
RNA analysis—Total RNA was extracted using Tri-reagent (Bio-Lab Chemicals) and Direct-Zol™ RNA MiniPrep kit (Zymo Research). Following, cDNA was synthesized from […] of total RNA using a High-Capacity cDNA Reverse Transcription Kit (ABI, Thermo Fisher Scientific). cDNA samples were analyzed by quantitative PCR (qPCR) in a ViiA 7 Real-Time PCR System using Fast qPCRBIO SYBR Green Mix (PCR Biosystems).
In the next step, the effect of the identified SPIs on expression of the selected genes following NF-κB activation was analyzed. Specifically, Hela cells were pre-incubated with DMSO or SPI (50 μM or less) for 1 hour followed by treatment with TNFα for an additional 1 hour.

COc1ccc(C=CC(=O)c2cc(O)ccc2O)cc1 [SPI-21]
Down-regulating transcription of Mutant Htt (i.e. inhibiting transcription elongation of mutant Htt gene induced by Spt5) (mutant (Q111) Htt): +
IC50 [1]: 23 µM
effect on intrinsic fluorescence of Spt5 (His-Spt5 (fused to Spt4)): no significant effect
Down-regulating transcription of pro-inflammatory genes under TNFα induced conditions (i.e. inhibiting transcription elongation of pro-inflammatory genes induced by Spt5) [2]: +++ (+++ represent >80% inhibition)

Nc1ccccc1SC(CC(=O)c1cccs1)c1cccs1 (centres unmarked) [SPI-18]
Down-regulating transcription of Mutant Htt (i.e. inhibiting transcription elongation of mutant Htt gene induced by Spt5) (mutant (Q111) Htt): +
IC50 [1]: 76 µM
IC50 (His-Spt5 (fused to Spt4)): 40 µM
Down-regulating transcription of pro-inflammatory genes under TNFα induced conditions (i.e. inhibiting transcription elongation of pro-inflammatory genes induced by Spt5) [2]: + (+ >50%)
